Legend:
[1] = test system: T1 generation OsACCase2 W2038L edited seedlings; experiment: Resistance test of T1 generation OsACCase2 W2038L edited seedlings to ACCase inhibitor herbicides; assay type: in vivo, Oryza sativa; conditions: for Resistance of OsACCase2 W2038L mutant strain: field concentrations
Description: After the propagation of the TO strain containing the W2038L mutation, the T1 generation mutant seedlings were tested for herbicide resistance with quizalofop-p and haloxyfop-p in field concentrations.

[2] = test system: T1 generation OsALS W548 site and OsSWEET14 double-site edited seedlings; experiment: Resistance test of T1 generation OsALS W548L edited seedlings to ALS inhibitor herbicides; assay type: in vivo, Oryza sativa; conditions: for Resistance of OsALS W548L mutant strain: field concentrations
Description: After the propagation of TO strains in which the occurrence of OsALS W548L mutation was detected, the T1 generation mutant seedling strains were tested for herbicide resistance with pyroxsulam, imazapic, nicosulfuron and flucarbazone-Na at field concentrations.

Arabidopsis thaliana = experiment: Selection of Arabidopsis thaliana seedlings on imazapic medium; assay type: in vivo
Description: After the seeds of the T1 strain were harvested from single plant, the seeds of different strains of two vectors were selected and spread on the imazapic selection medium (MS medium+0.24 μg/mL imazapic) to perform selection, and the positive seedlings were transplanted to the soil one week later and subjected to molecular detection, in which the method was the same as step 5.

Compound: C[C@@H](Oc1ccc(Oc2ncc(C(F)(F)F)cc2Cl)cc1)C(=O)O [Haloxyfop-p]
- Resistance of W2038L edited strains QY367-7-12 and QY367-7-18 ([1]; 5 g/mu active ingredient of Haloxyfop-p): developed resistance
- Resistance of OsACCase2 W2038L mutant strain [1]: significantly resistant

Compound: COc1nn(C(=O)[N-]S(=O)(=O)c2ccccc2OC(F)(F)F)c(=O)n1C.[Na+] [flucarbazone-Na]
- Resistance of W548L edited strain QY360-7-9 ([2]; 2 g/mu active ingredient of flucarbazone-Na): developed resistance
- Resistance of OsALS W548L mutant strain [2]: significant resistance

Compound: Cc1cnc(C2=NC(=O)C(C)(C(C)C)N2)c(C(=O)O)c1 (stereo not drawn) [imazapic]
- Response of W574M edited T1 plant to imazapic treatment (Arabidopsis thaliana; Example 3): showed resistance
- Growth of wild-type Col-0 on imazapic resistant medium (Arabidopsis thaliana; MS medium + 0.24 μg/mL imazapic): could not grow
- Growth of positive plants of the mutant strains on imazapic resistant medium (Arabidopsis thaliana; MS medium + 0.24 μg/mL imazapic, T2): could grow normally
- Resistance of W548L edited strain QY360-7-11 ([2]; 7 g/mu active ingredient of imazapic): developed resistance
- Resistance of OsALS W548L mutant strain [2]: significant resistance

Compound: COc1cc(OC)nc(NC(=O)NS(=O)(=O)c2ncccc2C(=O)N(C)C)n1 [nicosulfuron]
- Resistance of W548L edited strain QY360-7-11 ([2]; 4 g/mu active ingredient of nicosulfuron): developed resistance
- Resistance of OsALS W548L mutant strain [2]: significant resistance

Compound: COc1cc(OC)n2nc(NS(=O)(=O)c3c(C(F)(F)F)ccnc3OC)nc2n1 [pyroxsulam]
- Resistance of W548L edited strains QY360-7-2 and QY360-7-11 ([2]; 2 g/mu active ingredient of pyroxsulam): developed resistance
- Resistance of OsALS W548L mutant strain [2]: significant resistance

Compound: C[C@@H](Oc1ccc(Oc2cnc3cc(Cl)ccc3n2)cc1)C(=O)O [quizalofop-p]
- Resistance of W2038L edited strains QY367-5-10 and QY367-5-21 ([1]; 5 g/mu active ingredient of quizalofop-p): developed resistance
- Resistance of OsACCase2 W2038L mutant strain [1]: significantly resistant

— patent publication US20230287389A1, “A METHOD FOR GENERATING NEW MUTATION IN ORGANISM AND USE THEREOF” (Qingdao Kingagroot Chemical Compound Co., Ltd., priority 2019, published 2023)
